In US20240261418A1, “SOS1 DEGRADING AGENT AND PREPARATION METHOD THEREFOR AND APPLICATION THEREOF” (SHANGHAI LEADINGTAC PHARMACEUTICAL CO. LTD., priority 2021, published 2024):

How the values were obtained:
[1] = biological target: T1, KRAS-G12C/SOS1 (Homo sapiens, UniProt Q07889); assay: KRAS-G12C/SOS1 binding assay (HTRF); conditions: inhibition of KRAS-G12C/SOS1 binding
T1 construct: purchased Cisbio 63ADK000CB16PEG
T1 sequence (Q07889 1-1333): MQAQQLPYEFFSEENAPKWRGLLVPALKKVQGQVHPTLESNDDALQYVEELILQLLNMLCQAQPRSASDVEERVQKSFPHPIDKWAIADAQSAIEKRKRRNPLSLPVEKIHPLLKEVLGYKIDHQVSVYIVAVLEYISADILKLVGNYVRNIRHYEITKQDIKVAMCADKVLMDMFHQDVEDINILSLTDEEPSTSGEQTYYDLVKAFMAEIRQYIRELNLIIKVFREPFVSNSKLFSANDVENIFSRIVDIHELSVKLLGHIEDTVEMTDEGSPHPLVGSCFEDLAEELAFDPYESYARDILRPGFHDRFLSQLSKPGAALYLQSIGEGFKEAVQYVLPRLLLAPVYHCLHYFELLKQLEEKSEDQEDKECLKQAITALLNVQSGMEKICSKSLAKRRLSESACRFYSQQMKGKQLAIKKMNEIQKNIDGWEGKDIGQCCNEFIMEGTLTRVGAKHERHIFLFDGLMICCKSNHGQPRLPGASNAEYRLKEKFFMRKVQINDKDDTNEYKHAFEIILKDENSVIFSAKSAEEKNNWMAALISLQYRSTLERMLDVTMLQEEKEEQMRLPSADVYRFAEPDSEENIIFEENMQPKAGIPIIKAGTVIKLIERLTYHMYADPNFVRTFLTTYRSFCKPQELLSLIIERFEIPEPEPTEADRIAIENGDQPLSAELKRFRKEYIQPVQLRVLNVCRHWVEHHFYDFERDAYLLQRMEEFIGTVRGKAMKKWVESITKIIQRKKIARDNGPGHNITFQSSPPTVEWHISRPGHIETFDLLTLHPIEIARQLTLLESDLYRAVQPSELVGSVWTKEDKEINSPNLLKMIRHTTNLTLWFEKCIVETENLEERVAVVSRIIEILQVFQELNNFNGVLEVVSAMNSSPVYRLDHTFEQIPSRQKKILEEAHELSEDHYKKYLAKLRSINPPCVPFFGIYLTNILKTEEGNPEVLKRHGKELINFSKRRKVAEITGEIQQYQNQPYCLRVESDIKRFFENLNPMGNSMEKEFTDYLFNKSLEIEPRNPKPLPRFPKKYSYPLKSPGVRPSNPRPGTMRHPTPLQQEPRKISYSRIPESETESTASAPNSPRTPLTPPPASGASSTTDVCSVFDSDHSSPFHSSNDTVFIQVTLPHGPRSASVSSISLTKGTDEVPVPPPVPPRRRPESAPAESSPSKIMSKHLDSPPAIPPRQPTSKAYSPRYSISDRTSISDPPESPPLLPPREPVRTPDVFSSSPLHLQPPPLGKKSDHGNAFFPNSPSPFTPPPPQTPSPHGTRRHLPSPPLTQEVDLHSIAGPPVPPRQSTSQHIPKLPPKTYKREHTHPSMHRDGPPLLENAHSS
Description: Test Example 1: KRAS-G12C/SOS1 Binding Assay
The following method was used to determine the extent of inhibition of KRAS-G12C/SOS1 binding by the preferred compounds of the present invention under in vitro conditions. In this method, the competitive inhibition of KRAS-G12C/SOS1 binding by the preferred compounds was assayed by the homogeneous time-resolved fluorescence (HTRF) technology using the KRAS-G12C/SOS1 binding assay kit (Cisbio, 63ADK000CB16PEG).
The experimental procedures were as follows (refer to the kit instructions for details): the compounds of the present invention were each firstly dissolved in DMSO at a concentration of 20 mM, and then diluted in an equal gradient with a buffer in the kit, so that the final concentrations of the test compounds in the reaction system were in a range of 10000 nM-0.04 nM, and the final concentration of DMSO was 0.5%. 2 μL of the compounds were each incubated with 4 μL of 1×Tag1-SOS1, 4 μL of 1×Tag2-KRAS-G12C (containing 10 μM guanosine triphosphate, GTP) at 25° C. for 15 min. Then 5 μL of 1×Anti-Tag1-Tb3+ and 5 μL of 1×Anti-Tag2-XL665 were added to the reaction system, and the mixture was incubated on ice for 3 h. After the incubation, the fluorescence intensity of each well was measured at the excitation wavelength of 337 nm, the fluorescence intensity of each well was read at the emission wavelengths of 620 nm and 665 nm on a microplate reader EnVision (PerkinElmer, 2105) in an HTRF mode, and the Ratio value was calculated by the formula Ratio=(665 nm/620 nm)×[…]. The inhibition rates of the compounds at each concentration were calculated by comparing the fluorescence intensity ratio with that of the control group, and then nonlinear curve fitting was performed by GraphPad Prism 8 in the logarithmic concentration-inhibition rate to obtain the IC50 values of the compounds, as shown in Table 1.

[2] = biological target: T2, SOS1 protein (Homo sapiens, UniProt Q07889); assay: SOS1 degradation assay (Western blot) in NCI-H358 cells; format: cell-based; conditions: NCI-H358 (KRAS G12C), 24 h
T2 sequence (Q07889 1-1333): T1 sequence (Q07889 1-1333)
Description: The specific procedures were as follows:
0.95 mL of cells were seeded into each well of a 24-well cell culture plate to achieve a cell density of 5×10^5 cells/well; the cell plate was incubated in an incubator at 37° C. with 5% CO2 overnight. Then 50 μL of the compound solution after dilution was added to each of the wells with the corresponding cells, so that the final concentration of the compound was in a range of 0.03-3000 nM.
After dosing, the cell plate was incubated in an incubator at 37° C. with 5% CO2 for 24 h. […] After the plate was left to stand on ice for 30 min, the protein lysate in each well was transferred to a 1.5 mL centrifuge tube and centrifuged at 15000 g for 20 min at 4° C. The cell lysate supernatant after centrifugation was cryopreserved at −80° C. for testing and was used for determining the degradation level of the SOS1 protein by a WB method. The concentration of total protein in the cell lysate supernatant was determined using the BCA Protein Quantification Kit (Tiangen, PA115-02).
The concentration of total protein in the cell lysate was determined by BCA. The total protein was adjusted to 0.5 μg/μL with PBS and 5×SDS- PAGE protein loading buffer (Beyotime, P001L), incubated in a water bath at 100° C. for 15 min, incubated in an ice bath on ice for 5 min, centrifuged at 14000 g for 1 min at 4° C., and mixed well as a loading sample for WB. Protein electrophoresis was performed on a precast gel (KeyGEN, KGMG010W15) with a loading volume of 10 μL (total protein: 5 μg) using a Tris-MOPS-SDS running solution (Adamas, P1598253) at a constant voltage of 120 V for 55 min. After the electrophoresis, the protein on the gel strip was transferred to a PVDF membrane at a constant current of 250 mA for 65 min. After the membrane transfer, the membrane was incubated in 1× QuickBlock blocking buffer (Beyotime, P0235) for 30 min at room temperature. […] The protein map was subjected to gray value analysis by the chemiluminescence imaging system from Clinx. […] Then the degradation rate was calculated by comparing the gray correction value with the gray correction value of the control group. Then nonlinear curve fitting was performed by GraphPad Prism 8 in the logarithmic concentration-inhibition rate to obtain the DC50 and Dmax values of the compounds.

Row | IC50 [1] | DC50 [2] | Dmax [2] | SMILES | NCI-H358 (G12C) Dmax [2]
1 | ≤ 15 nM | < 50 nM | 80 to 100% | CNCc1ccccc1-c1csc([C@@H](C)Nc2nc(C)nc3cc(OC)c([C@H]4CC[C@H](C(=O)N5CCN(CC6CCC7(CC6)CCN(C(=O)c6ccc(Cl)c(N8CCC(=O)NC8=O)c6)CC7)CC5)CC4)cc23)c1 [Example 2, 1-(2-chloro-5-(9-((4-((1R,4R)-4-(7-methoxy-2-methyl-4-(((R)-1-(4-(2-((methylamino)methyl)phenyl)thien-2-yl)ethyl)amino)quinazolin-6-yl)cyclohexane-1-carbonyl)piperazin-1-yl)methyl)-3-azaspiro[5.5]undecane-3-carbonyl)phenyl)dihydropyrimidine-2,4(1H,3H)-dione] | –
2 | – | – | – | COc1cc2nc(C)nc(N[C@H](C)c3cc(N)cc(C(F)(F)F)c3)c2cc1[C@H]1CC[C@H](C(=O)N2CCC(CCCN(C)C3CCN(Cc4ccc(Cl)c(N5CCC(=O)NC5=O)c4)CC3)CC2)CC1 [Example 10, 1-(5-((4-((3-(1-((1R,4R)-4-(4-(((R)-1-(3-amino-5-(trifluoromethyl)phenyl)ethyl)amino)-7-methoxy-2-methylquinazolin-6-yl)cyclohexane-1-carbonyl)piperidin-4-yl)propyl)(methyl)amino)piperidin-1-yl)methyl)-2-chlorophenyl)dihydropyrimidine-2,4(1H,3H)-dione] | D (Dma (%)<30)
3 | – | – | – | COc1cc2nc(C)nc(N[C@H](C)c3cc(N)cc(C(F)(F)F)c3)c2cc1C1CCC(C(=O)N2CCC(CCOCC3CCN(C(=O)c4ccc5c(c4)C(=O)N(C4CCC(=O)NC4=O)C5=O)CC3)CC2)CC1 (stereo partly drawn) [Example 11, 5-(4-((2-(1-((1S,4S)-4-(4-(((R)-1-(3-amino-5-(trifluoromethyl)phenyl)ethyl)amino)-7-methoxy-2-methylquinazolin-6-yl)cyclohexane-1-carbonyl)piperidin-4-yl)ethoxy)methyl)piperidine-1-carbonyl)-2-(2,6-dioxopiperidin-3-yl)isoindoline-1,3-dione] | A (80≤Dmax (%)≤100)
4 | ≤ 15 nM | 50 to 100 nM | 80 to 100% | COc1cc2nc(C)nc(N[C@H](C)c3cc(-c4ccccc4CN(C)C)cs3)c2cc1[C@H]1CC[C@H](C(=O)N2CCN(CC3CCC4(CC3)CCN(C(=O)c3ccc(Cl)c(N5CCC(=O)NC5=O)c3)CC4)CC2)CC1 [Example 4, 1-(2-chloro-5-(9-((4-((1R,4R)-4-(4-(((R)-1-(4-(2-((dimethylamino)methyl)phenyl)thien-2-yl)ethyl)amino)-7-methoxy-2-methylquinazolin-6-yl)cyclohexane-1-carbonyl)piperazin-1-yl)methyl)-3-azaspiro[5.5]undecane-3-carbonyl)phenyl)dihydropyrimidine-2,4(1H,3H)-dione] | –
5 | – | – | 30 to 50% | CCNc1cc([C@@H](C)Nc2nc(C)nc3cc(OC)c([C@H]4CC[C@H](C(=O)N5CCN(CC6CCC7(CC6)CCN(C(=O)c6ccc(Cl)c(N8CCC(=O)NC8=O)c6)CC7)CC5)CC4)cc23)cc(C(F)(F)F)c1 [Example 7, 1-(2-chloro-5-(9-((4-((1R,4R)-4-(4-(((R)-1-(3-(ethylamino)-5-(trifluoromethyl)phenyl)ethyl)amino)-7-methoxy-2-methylquinazolin-6-yl)cyclohexane-1-carbonyl)piperazin-1-yl)methyl)-3-azaspiro[5.5]undecane-3-carbonyl)phenyl)dihydropyrimidine-2,4(1H,3H)-dione] | –
6 | – | – | – | Cc1nc(N[C@H](C)c2cc(N)cc(C(F)(F)F)c2)c2cc([C@H]3CC[C@H](C(=O)N4CCN(CC5CCC6(CC5)CCN(C(=O)c5ccc(Cl)c(N7CCC(=O)NC7=O)c5)CC6)CC4)CC3)ncc2n1 [Example 50, 1-(5-(9-((4-((1R,4R)-4-(4-(((R)-1-(3-amino-5-(trifluoromethyl)phenyl)ethyl)amino)-2-methylpyrido[3,4-d]pyrimidin-6-yl)cyclohexane-1-carbonyl)piperazin-1-yl)methyl)-3-azaspiro[5.5]undecane-3-carbonyl)-2-chlorophenyl)dihydropyrimidine-2,4(1H,3H)-dione] | B (50≤Dmax (%)<80)
7 | 15 to 30 nM | 100 to 500 nM | 50 to 80% | CNCc1ccccc1-c1csc([C@@H](C)Nc2nc(C)nc3cc(OC)c([C@H]4CC[C@H](C(=O)N5CCC(CCCC6CCN(C(=O)c7ccc(Cl)c(N8CCC(=O)NC8=O)c7)CC6)CC5)CC4)cc23)c1 [Example 3, 1-(2-chloro-5-(4-(3-(1-((1R,4R)-4-(7-methoxy-2-methyl-4-(((R)-1-(4-(2-((methylamino)methyl)phenyl)thien-2-yl)ethyl)amino)quinazolin-6-yl)cyclohexane-1-carbonyl)piperidin-4-yl)propyl)piperidine-1-carbonyl)phenyl)dihydropyrimidine-2,4(1H,3H)-dione] | –

Row | SMILES | IC50 [1] | DC50 [2] | Dmax [2] | NCI-H358 (G12C) Dmax [2]
8 | COc1cc2nc(C)nc(N[C@@H](C)c3cc(N)cc(C(F)(F)F)c3)c2cc1[C@H]1CC[C@@H](C(=O)N2CCN(CCC3CCC4(CC3)CCN(C(=O)c3ccc(Cl)c(N5CCC(=O)NC5=O)c3)CC4)CC2)CC1 [Example 6, 1-(5-(9-(2-(4-((1S,4S)-4-(4-(((R)-1-(3-amino-5-(trifluoromethyl)phenyl)ethyl)amino)-7-methoxy-2-methylquinazolin-6-yl)cyclohexane-1-carbonyl)piperazin-1-yl)ethyl)-3-azaspiro[5.5]undecane-3-carbonyl)-2-chlorophenyl)dihydropyrimidine-2,4(1H,3H)-dione] | – | 1000 to 10000 nM | – | C (30≤Dmax (%)<50)
